Laboratory results reported in paper PMC11012124, “Synthesis of Novel Triazine-Based Chalcones and 8,9-dihydro-7H-pyrimido[4,5-b][1,4]diazepines as Potential Leads in the Search of Anticancer, Antibacterial and Antifungal Agents” (International Journal of Molecular Sciences, 2024).
Converted amounts (≈) assume the structure as drawn.

How the values were obtained:
IGROV1 = assay: cells; conditions: Homo sapiens, IGROV-1, 48 h; for CC50: read-out: LC50
PC-3 = assay: cells; conditions: Homo sapiens, PC-3, 48 h; for CC50: read-out: LC50
NCI-H226 = assay: cells; conditions: Homo sapiens, NCI-H226, 48 h; for CC50: read-out: LC50
ACHN = assay: cells; conditions: Homo sapiens, 48 h; for CC50: read-out: LC50
T-47D = assay: cells; conditions: Homo sapiens, T47D, 48 h; for CC50: read-out: LC50
DU-145 = assay: cells; conditions: Homo sapiens, DU-145, 48 h; for CC50: read-out: LC50
SK-MEL-2 = assay: cells; conditions: Homo sapiens, SK-MEL-2, 48 h; for CC50: read-out: LC50
60 cancer cell lines = assay: NCI-60 one-dose screen (10 μM); format: cell-based; conditions: Homo sapiens; one dose of 10 μM, mean over 60 cancer cell lines; read-out: Mean Growth Percent (MGP)
Excerpt: Additionally, the mean of the growth percentages (MGP) of each compound against all the 60 cancer cell lines is also reported, which is used as one of the selection criteria to continue with tests at five concentration doses.

A549/ATCC = assay: cells; conditions: Homo sapiens, A549, 48 h; for CC50: read-out: LC50
SW-620 = assay: cells; conditions: Homo sapiens, SW-620, 48 h; for CC50: read-out: LC50
MOLT-4 = assay: cells; conditions: Homo sapiens, MOLT-4, 48 h; for CC50: read-out: LC50
NCI-H23 = assay: cells; conditions: Homo sapiens, NCI-H23, 48 h
LOX IMVI = assay: cells; conditions: Homo sapiens, 48 h; for CC50: read-out: LC50, LOX IMVI, 48 h
RPMI-8226 = assay: cells; conditions: Homo sapiens, RPMI-8226, 48 h; for CC50: read-out: LC50
NCI/ADR-RES = assay: cells; conditions: Homo sapiens, 48 h; for CC50: read-out: LC50
MDA-MB-231/ATCC = assay: cells; conditions: Homo sapiens, MDA-MB-231, 48 h; for CC50: read-out: LC50
BT-549 = assay: cells; conditions: Homo sapiens, BT-549, 48 h; for CC50: read-out: LC50
NCI-H522 = assay: cells; conditions: Homo sapiens, NCI-H522, 48 h; for CC50: read-out: LC50
SNB-19 = assay: cells; conditions: Homo sapiens, SNB-19, 48 h; for CC50: read-out: LC50
HCT-116 = assay: cells; conditions: Homo sapiens, HCT-116, 48 h; for CC50: read-out: LC50
HOP-92 = assay: cells; conditions: Homo sapiens, HOP-92, 48 h; for CC50: read-out: LC50
[1] = test system: M. tuberculosis ATCC 27294; assay: Antitubercular broth microdilution MIC; format: cell-based; conditions: Mycobacterium tuberculosis; M. tuberculosis ATCC 27294 (H37Rv); read-out: Minimum inhibitory concentration (MIC)
MDA-MB-435 = assay: cells; conditions: Homo sapiens, MDA-MB-435, 48 h; for CC50: read-out: LC50
U251 = assay: cells; conditions: Homo sapiens, U-251, 48 h; for GI50: U251, 48 h; for CC50: read-out: LC50
[2] = test system: N. gonorrhoeae ATCC 49226; assay: MIC on GC agar plates; format: cell-based, Neisseria gonorrhoeae; conditions: Neisseria gonorrhoeae, ATCC49226, read-out: MIC
Summary of the method: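 Agar dilution was used: GC agar with 1% IsoVitaleX containing increasing compound concentrations was inoculated with 1 × 10^4 CFU. The MIC was taken as the lowest concentration inhibiting growth, with growth confirmed by oxidase test, in duplicate across at least two independent experiments.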

SR = assay: cells; conditions: Homo sapiens, 48 h

## CN(C)c1nc(NCCNS(=O)(=O)c2ccc(C(=O)/C=C/c3ccc(C(F)(F)F)cc3)cc2)nc(Nc2ccc(F)cc2)n1 [24g]
IGROV1
  GI50: 12.3 µM
  CC50: 24.9 µM
PC-3
  GI50: 4.15 µM
  CC50: 18.2 µM
NCI-H226
  GI50: 7.82 µM
  CC50: 24.7 µM
ACHN
  GI50: 5.08 µM
  CC50: 17.4 µM
T-47D
  GI50: 5.16 µM
  CC50: 19.6 µM
DU-145
  GI50: 11.2 µM
  CC50: 24 µM
SK-MEL-2
  GI50: 9.45 µM
  CC50: 22.3 µM
60 cancer cell lines
  activity at 10 µM: -27.2%
A549/ATCC
  GI50: 10 µM
  CC50: 25.4 µM
SW-620
  GI50: 2.24 µM
  CC50: 5.06 µM
MOLT-4
  GI50: 2.9 µM
  CC50: 9.61 µM
NCI-H23
  GI50: 11.2 µM
NCI-H23; read-out: LC50
  CC50: 24.2 µM
LOX IMVI
  GI50: 1.86 µM
  CC50: 3.84 µM
RPMI-8226
  GI50: 3 µM
  CC50: > 100 µM
NCI/ADR-RES
  GI50: 10.7 µM
  CC50: 23.7 µM
MDA-MB-231/ATCC
  GI50: 8.38 µM
  CC50: 20.8 µM
BT-549
  GI50: 12.7 µM
  CC50: 25.6 µM
NCI-H522
  GI50: 11.2 µM
  CC50: 24.7 µM
SNB-19
  GI50: 12 µM
  CC50: 24.3 µM
HCT-116
  GI50: 1.68 µM
  CC50: 3.13 µM
HOP-92
  GI50: 6.15 µM
  CC50: 20.7 µM
[1]
  MIC: 50 µg/mL (≈ 79.4 µM)
MDA-MB-435
  GI50: 2.86 µM
  CC50: 8.49 µM
U251
  GI50: 3.42 µM
  CC50: 13 µM

## Cc1ccc(C2CC(c3ccc(Nc4nc(NCCO)nc(Nc5ccc(Cl)cc5)n4)cc3)=Nc3c(N)nc(N)nc3N2)cc1 (stereo not shown) [33b]
[2]
  MIC: 0.5 µg/mL (≈ 0.802 µM)
IGROV1
  GI50: 1.65 µM
  CC50: 5.98 µM
PC-3
  GI50: 1.74 µM
  CC50: 7.43 µM
NCI-H226
  GI50: 16.7 µM
  CC50: 88.2 µM
ACHN
  GI50: 1.72 µM
  CC50: 5.56 µM
T-47D
  GI50: 1.67 µM
  CC50: 8.01 µM
DU-145
  GI50: 1.76 µM
  CC50: 5.77 µM
SK-MEL-2
  GI50: 1.81 µM
  CC50: 6.4 µM
60 cancer cell lines
  activity at 10 µM: -21.8%
A549/ATCC
  GI50: 1.74 µM
  CC50: 6.8 µM
SW-620
  GI50: 1.79 µM
  CC50: 6.12 µM
MOLT-4
  GI50: 1.38 µM
  CC50: > 100 µM
LOX IMVI
  GI50: 1.65 µM
  CC50: 5.69 µM
SR
  GI50: 1.68 µM
SR; read-out: LC50
  CC50: > 100 µM
RPMI-8226
  GI50: 1.83 µM
  CC50: > 100 µM
NCI/ADR-RES
  GI50: 1.73 µM
  CC50: 6.97 µM
MDA-MB-231/ATCC
  GI50: 1.67 µM
  CC50: 6.37 µM
BT-549
  GI50: 1.73 µM
  CC50: 5.69 µM
NCI-H522
  GI50: 1.72 µM
  CC50: 7.03 µM
SNB-19
  GI50: 1.57 µM
  CC50: 5.75 µM
HCT-116
  GI50: 1.62 µM
  CC50: 5.45 µM
HOP-92
  GI50: 1.3 µM
  CC50: 6.3 µM
MDA-MB-435
  GI50: 1.73 µM
  CC50: 5.68 µM
U251
  GI50: 1.6 µM
  CC50: 5.65 µM

## Nc1nc(N)c2c(n1)NC(c1ccccc1)CC(c1ccc(Nc3nc(NCCO)nc(Nc4ccc(Cl)cc4)n3)cc1)=N2 (stereo not shown) [33a]
[2]
  MIC: 1 µg/mL (≈ 1.64 µM)
IGROV1
  GI50: 1.56 µM
  CC50: 6.29 µM
PC-3
  GI50: 1.59 µM
NCI-H226
  GI50: 11.5 µM
  CC50: 85 µM
ACHN
  GI50: 1.95 µM
  CC50: 9.76 µM
T-47D
  GI50: 1.52 µM
  CC50: 7.29 µM
DU-145
  GI50: 1.8 µM
  CC50: 6.34 µM
SK-MEL-2
  GI50: 1.38 µM
  CC50: 5.6 µM
60 cancer cell lines
  activity at 10 µM: 25.3%
A549/ATCC
  GI50: 2.84 µM
  CC50: > 100 µM
SW-620
  GI50: 1.87 µM
  CC50: 6.48 µM
MOLT-4
  GI50: < 0.01 µM
  CC50: > 100 µM
LOX IMVI
  GI50: 1.54 µM
  CC50: 5.66 µM
SR
  GI50: 0.55 µM
RPMI-8226
  GI50: 1.38 µM
  CC50: > 100 µM
NCI/ADR-RES
  GI50: 4.33 µM
  CC50: > 100 µM
MDA-MB-231/ATCC
  GI50: 1.75 µM
  CC50: 6.94 µM
BT-549
  GI50: 1.77 µM
  CC50: 5.81 µM
NCI-H522
  GI50: 1.79 µM
  CC50: 6.77 µM
SNB-19
  GI50: 1.58 µM
  CC50: 5.64 µM
HCT-116
  GI50: 1.51 µM
  CC50: 5.33 µM
HOP-92
  GI50: 1.42 µM
  CC50: 6.74 µM
MDA-MB-435
  GI50: 1.74 µM
  CC50: 5.78 µM
U251
  GI50: 1.53 µM
  CC50: 5.84 µM
